# Experiments:
# Assay in all cases: relative viability (nuclei count vs DMSO), 5 days (fraction); higher = more cells survive
# HCC-44 = system: HCC-44
# Procedure, shortened: (§1)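 Lung cancer cell lines in 1536-well plates got either a single drug or a fixed anchor-drug dose together with five library-drug doses (not always all listed) in √10 steps, by pin tool, on the day after seeding. Nuclei were counted after 5 days, and relative viability is the treated-to-vehicle ratio of nuclei counts. Values are medians of duplicate plates.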
# SW 1573 = system: SW 1573
# Procedure, shortened: as §1
# NCI-H1650 = system: NCI-H1650
# Procedure, shortened: as §1
# NCI-H23 = system: NCI-H23
# Procedure, shortened: as §1
# NCI-H1563 = system: NCI-H1563
# Procedure, shortened: as §1
# H3255 = system: H3255
# Procedure, shortened: as §1
# NCI-H596 = system: NCI-H596
# Procedure, shortened: as §1
# NCI-H2347 = system: NCI-H2347
# Procedure, shortened: as §1
# PC-3 [JPC-3] = system: PC-3 [JPC-3]
# Procedure, shortened: as §1
# LK-2 = system: LK-2
# Procedure, shortened: as §1
# LU99A = system: LU99A
# Procedure, shortened: as §1
# NCI-H727 = system: NCI-H727
# Procedure, shortened: as §1
# A-427 = system: A-427
# Procedure, shortened: as §1
# COR-L23 = system: COR-L23
# Procedure, shortened: as §1
# LC-2-ad = system: LC-2-ad
# Procedure, shortened: as §1
# PC-14 = system: PC-14
# Procedure, shortened: as §1
# NCI-H1793 = system: NCI-H1793
# Procedure, shortened: as §1
# NCI-H460 = system: NCI-H460
# Procedure, shortened: as §1
# 201T = system: 201T
# Procedure, shortened: as §1
# LCLC-97TM1 = system: LCLC-97TM1
# Procedure, shortened: as §1
# NCI-H2228 = system: NCI-H2228
# Procedure, shortened: as §1
smiles,measurement,setting,value
O=c1cc(-c2cccc3c2Sc2ccccc2S3)oc(N2CCOCC2)c1 + CS(=O)(=O)CCNCc1ccc(-c2ccc3ncnc(Nc4ccc(OCc5cccc(F)c5)c(Cl)c4)c3c2)o1 [Lapatinib] (partner 2 µM),relative viability,HCC-44; first compound 0.08 µM,1.05
same,relative viability,HCC-44; first compound 0.253 µM,1.21
same,relative viability,HCC-44; first compound 0.8 µM,0.977
same,relative viability,HCC-44; first compound 2.53 µM,0.928
same,relative viability,HCC-44; first compound 8 µM,1.14
same,relative viability,SW 1573; first compound 0.08 µM,1.02
same,relative viability,SW 1573; first compound 0.253 µM,1.28
same,relative viability,SW 1573; first compound 0.8 µM,0.935
same,relative viability,SW 1573; first compound 2.53 µM,1.05
same,relative viability,SW 1573; first compound 8 µM,1.24
same,relative viability,NCI-H1650; first compound 0.08 µM,0.687
same,relative viability,NCI-H1650; first compound 0.253 µM,0.917
same,relative viability,NCI-H1650; first compound 0.8 µM,0.717
same,relative viability,NCI-H1650; first compound 2.53 µM,0.84
same,relative viability,NCI-H1650; first compound 8 µM,0.847
same,relative viability,NCI-H23; first compound 0.08 µM,1.1
same,relative viability,NCI-H23; first compound 0.253 µM,1.34
same,relative viability,NCI-H23; first compound 0.8 µM,1.14
same,relative viability,NCI-H23; first compound 2.53 µM,0.868
same,relative viability,NCI-H23; first compound 8 µM,1.17
same,relative viability,NCI-H1563; first compound 0.08 µM,0.872
same,relative viability,NCI-H1563; first compound 0.253 µM,0.978
same,relative viability,NCI-H1563; first compound 0.8 µM,0.9
same,relative viability,NCI-H1563; first compound 2.53 µM,0.934
same,relative viability,NCI-H1563; first compound 8 µM,0.891
same,relative viability,H3255; first compound 0.08 µM,0.239
same,relative viability,H3255; first compound 0.253 µM,0.226
same,relative viability,H3255; first compound 0.8 µM,0.224
same,relative viability,H3255; first compound 2.53 µM,0.231
same,relative viability,H3255; first compound 8 µM,0.225
same,relative viability,NCI-H596; first compound 0.08 µM,1.06
same,relative viability,NCI-H596; first compound 0.253 µM,1.06
same,relative viability,NCI-H596; first compound 0.8 µM,0.95
same,relative viability,NCI-H596; first compound 2.53 µM,0.894
same,relative viability,NCI-H596; first compound 8 µM,1.22
same,relative viability,NCI-H2347; first compound 0.08 µM,0.978
same,relative viability,NCI-H2347; first compound 0.253 µM,1.09
same,relative viability,NCI-H2347; first compound 0.8 µM,1.02
same,relative viability,NCI-H2347; first compound 2.53 µM,1.04
same,relative viability,NCI-H2347; first compound 8 µM,1.19
same,relative viability,PC-3 [JPC-3]; first compound 0.08 µM,0.44
same,relative viability,PC-3 [JPC-3]; first compound 0.253 µM,0.497
same,relative viability,PC-3 [JPC-3]; first compound 0.8 µM,0.435
same,relative viability,PC-3 [JPC-3]; first compound 2.53 µM,0.437
same,relative viability,PC-3 [JPC-3]; first compound 8 µM,0.532
same,relative viability,LK-2; first compound 0.08 µM,0.86
same,relative viability,LK-2; first compound 0.253 µM,1
same,relative viability,LK-2; first compound 0.8 µM,0.997
same,relative viability,LK-2; first compound 2.53 µM,0.918
same,relative viability,LK-2; first compound 8 µM,1.21
same,relative viability,LU99A; first compound 0.08 µM,1.07
same,relative viability,LU99A; first compound 0.253 µM,0.954
same,relative viability,LU99A; first compound 0.8 µM,1.49
same,relative viability,LU99A; first compound 2.53 µM,1.03
same,relative viability,LU99A; first compound 8 µM,1.11
same,relative viability,NCI-H727; first compound 0.253 µM,1.17
same,relative viability,NCI-H727; first compound 2.53 µM,0.802
same,relative viability,NCI-H727; first compound 8 µM,1.16
same,relative viability,A-427; first compound 0.08 µM,1.06
same,relative viability,A-427; first compound 0.253 µM,1.05
same,relative viability,A-427; first compound 0.8 µM,1.08
same,relative viability,A-427; first compound 2.53 µM,0.868
same,relative viability,A-427; first compound 8 µM,1.12
same,relative viability,COR-L23; first compound 0.08 µM,1.1
same,relative viability,COR-L23; first compound 0.253 µM,1.67
same,relative viability,COR-L23; first compound 0.8 µM,0.962
same,relative viability,COR-L23; first compound 2.53 µM,0.836
same,relative viability,COR-L23; first compound 8 µM,1.09
same,relative viability,LC-2-ad; first compound 0.08 µM,0.963
same,relative viability,LC-2-ad; first compound 0.253 µM,1.04
same,relative viability,LC-2-ad; first compound 0.8 µM,1.06
same,relative viability,LC-2-ad; first compound 2.53 µM,0.921
same,relative viability,LC-2-ad; first compound 8 µM,0.956
same,relative viability,PC-14; first compound 0.08 µM,0.291
same,relative viability,PC-14; first compound 0.253 µM,0.388
same,relative viability,PC-14; first compound 0.8 µM,0.245
same,relative viability,PC-14; first compound 2.53 µM,0.245
same,relative viability,PC-14; first compound 8 µM,0.308
same,relative viability,NCI-H1793; first compound 0.08 µM,0.641
same,relative viability,NCI-H1793; first compound 0.253 µM,1.16
same,relative viability,NCI-H1793; first compound 0.8 µM,0.643
same,relative viability,NCI-H1793; first compound 2.53 µM,0.837
same,relative viability,NCI-H1793; first compound 8 µM,0.752
same,relative viability,NCI-H460; first compound 0.08 µM,1.13
same,relative viability,NCI-H460; first compound 0.253 µM,1.52
same,relative viability,NCI-H460; first compound 0.8 µM,1.22
same,relative viability,NCI-H460; first compound 2.53 µM,0.843
same,relative viability,NCI-H460; first compound 8 µM,1.19
same,relative viability,201T; first compound 0.08 µM,1.02
same,relative viability,201T; first compound 0.253 µM,1.09
same,relative viability,201T; first compound 0.8 µM,0.915
same,relative viability,201T; first compound 2.53 µM,0.951
same,relative viability,201T; first compound 8 µM,1
same,relative viability,LCLC-97TM1; first compound 0.08 µM,0.753
same,relative viability,LCLC-97TM1; first compound 0.253 µM,0.781
same,relative viability,LCLC-97TM1; first compound 0.8 µM,1.25
same,relative viability,LCLC-97TM1; first compound 2.53 µM,0.685
same,relative viability,LCLC-97TM1; first compound 8 µM,1.18
same,relative viability,NCI-H2228; first compound 0.08 µM,1.02
same,relative viability,NCI-H2228; first compound 0.253 µM,1.5
same,relative viability,NCI-H2228; first compound 0.8 µM,0.912
same,relative viability,NCI-H2228; first compound 2.53 µM,0.891
same,relative viability,NCI-H2228; first compound 8 µM,1.1
